Source: US8513260B2, “Pyrazinylpyrazoles” (Bayer CropScience AG, priority 2009, dated 2013)

Test system: not listed separately
Assay: logP by HPLC on reversed-phase columns (C 18), EEC Directive 79/831 Annex V.A8
Type: physicochemical
Conditions: reversed-phase C18 HPLC column, pH 2.7, * LC-MS, acidic range pH 2.7, 0.1% aqueous formic acid and acetonitrile; read-out: log P
From the text: [table] The calibration is effected with unbranched alkan-2-ones (having 3 to 16 carbon atoms) with known logP values (logP values determined on the basis of the retention times by linear interpolation between two successive alkanones).

SMILES | chromatographic logP
COc1nccnc1-n1nc(C(F)(F)F)c(-c2cc(I)c3c(c2)OCO3)c1N [Ex. 139] | 3.27
COc1cc(-c2c(C(F)(F)F)nn(-c3nccnc3OC)c2N)cc(Cl)c1OC [Ex. 141] | 3.22

Same assay, conditions: reversed-phase C18 HPLC column, pH 7.8, *** LC-MS, neutral range pH 7.8, 0.001 molar aqueous ammonium hydrogencarbonate and acetonitrile; read-out: log P

SMILES | chromatographic logP
COc1nccnc1-n1nc(C(F)(F)F)c(-c2ccc(Br)cc2)c1N [Ex. 2] | 3.4

Test system: adult engorged Boophilus microplus females of the SP-resistant Parkhurst strain
Assay: Boophilus microplus (dip)
Type: in vivo
Conditions: 100 ppm, after 7 days, laying of fertile eggs
Protocol: Boophilus microplus (dip)
Test animals: adult engorged Boophilus microplus females of the SP-resistant Parkhurst strain
Solvent: dimethyl sulphoxide
10 mg of active ingredient are dissolved in 0.5 ml of dimethyl sulphoxide. For the purpose of preparing a suitable formulation, the active ingredient solution is diluted with water to the concentration desired in each case. This active ingredient preparation is pipetted into tubes. 8-10 ticks are transferred into a further tube with holes. The tube is immersed into the active ingredient formulation, and all ticks are completely wetted. After the liquid has run out, the ticks are transferred onto filter discs in plastic dishes and stored in a climate-controlled room. The activity is assessed after 7 days by laying of fertile eggs. Eggs whose fertility is not outwardly visible are stored in glass tubes in a climate-controlled cabinet until the larvae hatch. Efficacy of 100% means that none of the ticks has laid any fertile eggs.

SMILES | efficacy
C=Cc1nn(-c2nccnc2OC)c(N)c1-c1cc(Cl)cc(Cl)c1 [Ex. 8] | 90%

Same assay, conditions: Rhipicephalus microplus, 168 h, after 7 days, laying of fertile eggs, read-out: efficacy

SMILES | pest or weed control at 100 ppm
COc1nccnc1-n1nc(C(F)(F)F)c(-c2ccc(Br)cc2)c1N [Ex. 2] | 100%

Test system: Boophilus microplus
Assay: Boophilus microplus test (BOOPMI injection)
Type: in vivo
Conditions: 20 μg animal; injection into the abdomen; after 7 days, laying of fertile eggs
Protocol: Boophilus microplus Test (BOOPMI Injection) Solvent: dimethyl sulphoxide To prepare an appropriate active ingredient formulation, 10 mg of active ingredient are mixed with 0.5 ml of solvent and the concentrate is diluted with solvent to the desired concentration. The active ingredient solution is injected into the abdomen (Boophilus microplus), and the animals are transferred into dishes and stored in a climate-controlled room. The efficacy is assessed by laying of fertile eggs. After 7 days, the efficacy in % is determined. 100% means that none of the ticks has laid any fertile eggs.

SMILES | efficacy
C=Cc1nn(-c2nccnc2OC)c(N)c1-c1cc(Cl)cc(Cl)c1 [Ex. 8] | 100%

Same assay, conditions: Rhipicephalus microplus, 168 h; 20 μg animal; injection into the abdomen; after 7 days, laying of fertile eggs; read-out: efficacy

SMILES | pest or weed control at 0.02 mg
COc1nccnc1-n1nc(C(F)(F)F)c(-c2ccc(Br)cc2)c1N [Ex. 2] | 100%
COc1nccnc1-n1nc(C(F)(F)F)c(-c2cc(I)c3c(c2)OCO3)c1N [Ex. 139] | 100%
COc1cc(-c2c(C(F)(F)F)nn(-c3nccnc3OC)c2N)cc(Cl)c1OC [Ex. 141] | 100%

Test system: unfed adult fleas (Ctenocephalides felis)
Assay: Ctenocephalides felis test (CTECFE)
Type: in vivo
Conditions: Ctenocephalides felis, 48 h; 100 ppm in citrated cow's blood; after 2 days; read-out: efficacy (kill)
Protocol: Ctenocephalides felis Test ([…]) Solvent: 1 part by weight of dimethyl sulphoxide For the purpose of preparing an appropriate active ingredient formulation, 10 mg of active ingredient are mixed with 0.5 ml of dimethyl sulphoxide. A portion of the concentrate is diluted with citrated cow's blood and the desired concentration is established. About 20 unfed adult fleas (Ctenocephalides felis) are introduced into a chamber closed at the top and bottom with gauze. A metal cylinder, the bottom of which is closed with Parafilm, is placed onto the chamber. The cylinder contains the blood/active ingredient preparation, which can be imbibed by the fleas through the Parafilm membrane. After 2 days, the kill in % is determined. 100% means that all fleas have been killed; 0% means that none of the fleas have been killed.

SMILES | pest or weed control at 100 ppm
COc1nccnc1-n1nc(C(F)(F)F)c(-c2ccc(Br)cc2)c1N [Ex. 2] | 90%
COc1nccnc1-n1nc(C(F)(F)F)c(-c2cc(I)c3c(c2)OCO3)c1N [Ex. 139] | 100%
COc1cc(-c2c(C(F)(F)F)nn(-c3nccnc3OC)c2N)cc(Cl)c1OC [Ex. 141] | 100%

Test system: Lucilia cuprina larvae
Assay: Lucilia cuprina test (LUCICU)
Type: in vivo
Conditions: 48 h, treated horse meat, after 2 days, read-out: efficacy (kill)
Protocol: (§1) Lucilia cuprina Test (LUCICU) Solvent: dimethyl sulphoxide To prepare an appropriate active ingredient formulation, 10 mg of active ingredient are mixed with 0.5 ml of dimethyl sulphoxide and the concentrate is diluted with water to the desired concentration. Vessels containing horse meat treated with the active ingredient preparation of the desired concentration are populated with about 20 Lucilia cuprina larvae. After 2 days, the kill in % is determined. 100% means that all of the larvae have been killed; 0% means that none of the larvae have been killed.

SMILES | pest or weed control at 100 ppm
COc1nccnc1-n1nc(C(F)(F)F)c(-c2ccc(Br)cc2)c1N [Ex. 2] | 100%
COc1nccnc1-n1nc(C(F)(F)F)c(-c2cc(I)c3c(c2)OCO3)c1N [Ex. 139] | 100%
COc1cc(-c2c(C(F)(F)F)nn(-c3nccnc3OC)c2N)cc(Cl)c1OC [Ex. 141] | 100%

Test system: adult Musca domestica
Assay: Musca domestica test
Type: in vivo
Conditions: 20 ppm; after 2 days
Protocol: as §1, with “Musca domestica” for “Lucilia cuprina”, “Test” for “Test (LUCICU)”, “a sponge” for “horse meat”, “adult Musca domestica.” for “about 20 Lucilia cuprina larvae.”, “flies” for “larvae”

SMILES | efficacy (kill)
COc1nccnc1-n1nc(C(F)(F)F)c(-c2ccc(Br)cc2)c1N [Ex. 2] | 80%
COc1cc(-c2c(C(F)(F)F)nn(-c3nccnc3OC)c2N)cc(Cl)c1OC [Ex. 141] | 80%

Test system: green peach aphid (Myzus persicae)
Assay: Myzus test (MYZUPE spray treatment)
Type: in vivo
Conditions: 500 g/ha, Chinese cabbage discs, after 6 days
Protocol: Myzus Test (MYZUPE Spray Treatment) Solvent: 78 parts by weight of acetone • • 1.5 parts by weight of dimethylformamide Emulsifier: 0.5 part by weight of alkylaryl polyglycol ether To prepare an appropriate active ingredient preparation, 1 part by weight of active ingredient is mixed with the stated amounts of solvent and emulsifier, and the concentrate is diluted with emulsifier-containing water to the desired concentration. Discs of Chinese cabbage (Brassica pekinensis) infested by all stages of the green peach aphid (Myzus persicae) are sprayed with an active ingredient preparation of the desired concentration. After 6 days, the efficacy in % is determined. 100% means that all of the aphids have been destroyed; 0% means that none of the aphids have been destroyed.

SMILES | efficacy
C=Cc1nn(-c2nccnc2OC)c(N)c1-c1cc(Cl)cc(Cl)c1 [Ex. 8] | 100%

Test system: larvae of the mustard beetle (Phaedon cochleariae)
Assay: Phaedon test (PHAECO spray treatment)
Type: in vivo
Conditions: Phaedon cochleariae, 168 h, Chinese cabbage discs, after 7 days, read-out: efficacy
Protocol: Phaedon Test ([…] Spray Treatment) Solvent: 78.0 parts by weight of acetone • • 1.5 parts by weight of dimethylformamide Emulsifier: 0.5 part by weight of alkylaryl polyglycol ether To prepare an appropriate active ingredient preparation, 1 part by weight of active ingredient is mixed with the stated amounts of solvent and emulsifier, and the concentrate is diluted with emulsifier-containing water to the desired concentration. Discs of Chinese cabbage (Brassica pekinensis) are sprayed with an active ingredient preparation of the desired concentration and, after drying, populated with larvae of the mustard beetle (Phaedon cochleariae). After 7 days, the efficacy in % is determined. 100% means that all beetle larvae have been killed; 0% means that none of the beetle larvae have been killed.

SMILES | pest or weed control at 500 g/ha
COc1nccnc1-n1nc(C(F)(F)F)c(-c2ccc(Br)cc2)c1N [Ex. 2] | 100%
COc1nccnc1-n1nc(C(F)(F)F)c(-c2cc(I)c3c(c2)OCO3)c1N [Ex. 139] | 100%
COc1cc(-c2c(C(F)(F)F)nn(-c3nccnc3OC)c2N)cc(Cl)c1OC [Ex. 141] | 100%

Test system: caterpillars of the armyworm (Spodoptera frugiperda)
Assay: Spodoptera frugiperda test (SPODFR spray treatment)
Type: in vivo
Conditions: Spodoptera frugiperda, foliar, 168 h, maize leaf discs, after 7 days, read-out: efficacy
Protocol: Spodoptera frugiperda Test (SPODFR Spray Treatment) Solvent: 78.0 parts by weight of acetone • • 1.5 parts by weight of dimethylformamide Emulsifier: 0.5 part by weight of alkylaryl polyglycol ether To prepare an appropriate active ingredient preparation, 1 part by weight of active ingredient is mixed with the stated amounts of solvent and emulsifier, and the concentrate is diluted with emulsifier-containing water to the desired concentration. Discs of maize leaves (Zea mays) are sprayed with an active ingredient preparation of the desired concentration and, after drying, populated with caterpillars of the armyworm (Spodoptera frugiperda). After 7 days, the efficacy in % is determined. 100% means that all caterpillars have been killed; 0% means that none of the caterpillars have been killed.

SMILES | pest or weed control at 500 g/ha
COc1nccnc1-n1nc(C(F)(F)F)c(-c2cc(I)c3c(c2)OCO3)c1N [Ex. 139] | 100%
COc1cc(-c2c(C(F)(F)F)nn(-c3nccnc3OC)c2N)cc(Cl)c1OC [Ex. 141] | 100%

Test system: red spider mite (Tetranychus urticae)
Assay: Tetranychus test, OP-resistant (TETRUR spray treatment)
Type: in vivo
Conditions: Tetranychus urticae, foliar, 144 h, 500 g/ha, bean leaf discs, after 6 days, read-out: efficacy
Protocol: Tetranychus Test, OP-Resistant (TETRUR Spray Treatment)
Solvent: 78.0 parts by weight of acetone • • 1.5 parts by weight of dimethylformamide
Emulsifier: 0.5 part by weight of alkylaryl polyglycol ether
To prepare an appropriate active ingredient preparation, 1 part by weight of active ingredient is mixed with the stated amounts of solvent and emulsifier, and the concentrate is diluted with emulsifier-containing water to the desired concentration. Discs of bean leaves (Phaseolus vulgaris) infested by all stages of the red spider mite (Tetranychus urticae) are sprayed with an active ingredient preparation of the desired concentration. After 6 days, the efficacy in % is determined. 100% means that all spider mites have been killed; 0% means that none of the spider mites have been killed.

SMILES | pest or weed control at 500 g/ha
COc1nccnc1-n1nc(C(F)(F)F)c(-c2ccc(Br)cc2)c1N [Ex. 2] | 100%
COc1nccnc1-n1nc(C(F)(F)F)c(-c2cc(I)c3c(c2)OCO3)c1N [Ex. 139] | 80%
COc1cc(-c2c(C(F)(F)F)nn(-c3nccnc3OC)c2N)cc(Cl)c1OC [Ex. 141] | 100%
